# Source: article PMC11003925, “Antimicrobial activity and properties of de novo design of short synthetic lipopeptides” (Folia Microbiologica, 2024)
# Read-outs that look alike come from different tables or passages of the source. Residues, ends and D or L forms follow the SMILES beside them. *: point of attachment. Lithocholoyl = C[C@H](CCC(=O)*)[C@H]1CC[C@H]2[C@@H]3CC[C@@H]4C[C@H](O)CC[C@]4(C)[C@H]3CC[C@]12C
# Key:
# DNA = details: ref Ball et al. [2004]; cited from earlier work
# Source text: The majority of the known antimicrobial peptides have been isolated from natural sources. Recently genomic and proteomic methods have also been applied for peptide identification. Knowledge obtained by both classical and novel methods can be used to design the chemical synthesis of new peptide compounds with biological properties. The sequence analysis of natural antimicrobial peptides led to a template, with which it is possible to generate active AMPs (Tossi et al. [1997]; Giangaspero et al. [2001]; Tossi et al. [2000]). We designed three scrambled hexapeptides, one according to this templat ...
# E. coli DBM 3001 = format: cell-based; details: DBM 3001, 25 h
# Protocol: (§1) A Bioscreen C automated microbiology growth curve analysis system (Growth Curves, Piscataway, NJ, USA) was used for the quantitative determination of antimicrobial activity (minimal inhibitory concentration, MIC) of PAL/LCA-peptides. Optical density was measured with a wide bandpass filter (wavelength range 420–580 nm) at regular intervals and temperatures. This assay was performed in a special microtiter plate (10 × 10 wells) that allowed the simultaneous testing of a large number of samples against several microorganisms. The total testing volume was 100 µL, obtained by mixing 10 µL of microbial culture with OD600 equal to 0.1 with growth medium and a solution of the tested compounds. The positive controls were vancomycin and tetracycline for Bacillus subtilis (100 µg/mL) for Gram-positive bacteria, kanamycin, and tetracycline for Acinetobacter baumannii (100 µg/mL) for Gram-negative bacteria, and clotrimazole or amphotericin (100 µg/mL) for fungi. The maximal concentration of tested lipoproteins was 1 mg/mL. A pure growth medium was used as the negative control. The measurement period was 25 h. The lowest concentration with a 100% inhibition effect for 24 h of incubation was chosen as the MIC. The antibacterial activity of each compound was expressed as the minimum inhibitory concentration MIC (MIC is the lowest concentration of the compound needed to inhibit the growth of bacterial cells) and IC50 (IC50 is the concentration of the compound needed to inhibit the growth of bacterial cells by 50%).
# E. faecalis DBM 3075 = format: cell-based; details: for IC50: DBM 3075, 25 h
# Protocol: as §1
# Ps. aeruginosa DBM 3081 = format: cell-based, Pseudomonas aeruginosa; details: 25 h
# Protocol: as §1
# B. subtilis DBM 3006 = format: cell-based, Bacillus subtilis; details: for MIC: DBM 3006, 24 h; for IC50: DBM 3006, 25 h
# Protocol: as §1
# M. luteus DBM 3053 = format: cell-based, Micrococcus luteus; details: for MIC: DBM 3053, 24 h; for IC50: DBM 3053, 25 h
# Protocol: as §1
# Staph. aureus DBM 3002 = format: cell-based, Staphylococcus aureus; details: for MIC: 24 h; for IC50: 25 h
# Protocol: as §1
# Staph. aureus MRSA1 [1] = format: cell-based, Staphylococcus aureus; details: for MIC: 24 h; for IC50: 25 h
# Protocol: as §1
# C. tropicalis DBM 2166 = format: cell-based, Candida tropicalis; details: for IC50: DBM 2166, 25 h
# Protocol: as §1
# Staph. aureus MRSA1 [2] = format: cell-based, Staphylococcus aureus; details: 2xMIC, 37 °C
# Protocol: This assay was used to determine how quick the effect of PAL/LCA-peptides is on bacteria, as well as whether the activity of these compounds is dependent on the presence of active bacterial metabolism (Kamysz et al. [2007]). The bacterial cultures were incubated overnight at 37 °C in Mueller–Hinton’s broth 2 or potassium phosphate buffer (0.1 M, pH 7). Cultures were diluted to OD600 equal to 0.1 and divided into 2 samples, and the final volume of each sample was 1 mL; after that, they were centrifuged (5000 × g, 10 min) to collect bacteria. […] The samples were incubated at 37 °C. At specific time intervals, samples of bacterial suspension were taken, diluted, and spread on Petri dishes with Mueller–Hinton’s agar to count the number of surviving cells as colony-forming units (CFU). The whole experiment lasted 24 h.
# bacterial membrane = experiment: Membrane disruption (released lactate dehydrogenase activity); format: cell-based, Staphylococcus aureus; details: 1 h incubation at 37 °C, LDH kit, triplets
# Protocol: The disruption of the microbial membrane was followed by the detection of lactate dehydrogenase activity released from the intracellular space using a Cytotoxicity Detection Kit (LDH) from Roche (Korzeniewski and Callewaert [1983]; Macurkova et al. [2014]) after 1 h incubation at 37 °C with the PAL/LCA-peptide. The culture supernatant was collected and incubated with the reaction mixture from the kit. In the first step, NAD^+ is reduced to NADH + H^+ by the LDH-catalyzed conversion of lactate to pyruvate. In the second step, the catalyst (diaphorase) transfers H/H^+ from NADH + H^+ to the tetrazolium salt 2-(4-iodophenyl)-3-(4-nitrophenyl)-5-phenyl-2H-tetrazolium chloride (INT), which is reduced to formazan. The formazan dye formed is red and water-soluble and gives a broad absorption maximum at 500 nm. An increase in the amount of dead or plasma membrane-damaged cells results in an increase in the LDH activity in the cell culture supernatant.
# To determine the degree of damage to the cell membrane (%) by the tested substances, averages of absorbances (triplets) were calculated from the measured values for the samples, controls, and pure medium. Subsequently, the absorbance average for the clean medium (background) was subtracted from all averages obtained in this way. The degree of damage to the cell membrane by the tested substances was expressed as follows: membranedamage%=((AVZ-∅ANK)/(∅APK-ANK))∙100 ∅AVZ⋯averageabsorbanceofsample ∅ANK⋯averageabsorbanceofnegativecontrol ∅APK⋯averageabsorbanceofpositivecontrol
# Staph. aureus = experiment: Transmission electron microscopy of treated bacteria; format: cell-based, Staphylococcus aureus; details: 1 to 4 h incubation; media with (Mueller–Hinton broth 2) and without nutrients (potassium phosphate buffer)
# Protocol: Pictures of damaged bacterial cells were obtained by transmission electron microscopy after 1 to 4 h of incubation. Cells of the Gram-positive bacterial strains were not stained. A JEOL JEM-1010 transmission electron microscope (JEOL, Tokyo, Japan) equipped with a MegaView III CCD camera was used for visualization, and evaluation was performed with the program for image analysis AnalySIS software v. 2.0 (Soft Imaging Systems). The samples were plated on a carbon-coated electron microscopic grid and observed with an accelerating voltage of 80 kV.
# HEK293T = experiment: Cytotoxicity assay (xCELLigence impedance); format: cell-based, human; details: 24 h exposure
# Protocol: (§2) Experiments were carried out using an xCELLigence RTCA DP Instrument (Roche Diagnostics GmbH, Mannheim, Germany) which was placed into an incubator (37 °C and 5% CO2). Cell proliferation and cytotoxicity experiments were performed using modified 16-well plates (E-plate, Roche Diagnostics GmbH, Mannheim, Germany). Microelectrodes were attached to the bottom of the wells for the impedance-based detection of attachment, spreading, and proliferation of the cells (Stoddart [2011]). This system monitors cellular events in real time without the incorporation of labels by measuring electrical impedance across an interdigitated microelectrode integrated into the bottom of this special tissue culture plate. This impedance measurement improves upon conventional endpoint assays and provides quantitative information about the biological status of the cells, including cell number, adhesion, viability, and morphology. Ninety microliters of cultivation medium was used for the blank sample, and subsequently, 100 µL of HepG2 or HEK293T cell suspension (7 × 10^5 cells/mL) was added and placed into the incubator (37 °C, 95% humidity, 5% CO2). […] Chrysophsin-3 at a concentration of 100 µg/mL was used as a positive control and solvent (deionized water) as a negative control. Subsequent incubation was performed for at least an additional 24 h. The result of the measurement was viability curves. After the measurement, percentages of tissue culture growth inhibition were calculated for all the tested substances, as follows: %inhibition=(1-(ΔϕCIsample)/(ΔϕCIcontrol))·100
# (§3) Δ∅CIsample … the difference between the first and last average CI (cell index) values of the tissue culture in the presence of the tested sample.
# (§4) Δ∅CIcontrol … the difference between the first and last average CI values of the tissue culture itself.
# HepG2 = experiment: Cytotoxicity assay (xCELLigence impedance); format: cell-based, human; details: for % inhibition: 24 h exposure
# Protocol: as §2, §3, §4
# A. baumannii DBM 3183 = experiment: microbe, parasite or virus in culture; format: cell-based, Acinetobacter baumannii; details: DBM 3183, 25 h
# Protocol: as §1
# [3] = test system: plasmid pBluescript II KS-; experiment: DNA binding assay (gel retardation); details: 50 ng DNA, 1 h room temperature, 1% agarose gel
# Protocol: This assay was performed as described by Park et al. ([1998]), with a few modifications. […] The reaction mixture was incubated at room temperature for 1 h. Subsequently, 4 µL of native loading buffer (10% Ficol, 10 mM Tris–HCl (pH 7.5), 50 mM EDTA, 0.25% bromophenol blue) was added. An aliquot was applied to 1% agarose gel electrophoresis in 0.5xTris borate-EDTA buffer. Circular plasmid DNA was isolated from (Luria–Bertani medium with AMPI in final concentration 100 µg/mL) bacterial strain E. coli DH5α / pBluescriptII KS- that had been grown overnight, and linearization was performed overnight by enzymatic reaction using restriction endonuclease EcoRV at 37 °C. The evaluation was performed by visualizing the DNA with the intercalation dye Midori Green Advanced DNA Stain under UV light. Reduced electrophoretic mobility compared to the control is considered to be evidence of peptide binding to DNA.
# According to the previous results, we decided to clarify one of the possible molecular interaction mechanisms, the ability of the studied lipopeptides to bind microbial plasmid DNA. Based on the assumption that pore formation is only one of the influencing factors, which arose from previous results, the effect on one of the possible intracellular targets, DNA, was determined. This determination was carried out on isolated plasmid DNA, specifically on two plasmids, pGreen 0029 and pBluescript II KS- in circular and linearized form.
Structure (SMILES),IC50 (E. coli DBM 3001),IC50 (E. faecalis DBM 3075),IC50 (Ps. aeruginosa DBM 3081),MIC (B. subtilis DBM 3006),IC50 (B. subtilis DBM 3006),MIC (M. luteus DBM 3053),IC50 (M. luteus DBM 3053),MIC (Staph. aureus DBM 3002),IC50 (Staph. aureus DBM 3002),MIC (Staph. aureus MRSA1 [1]),IC50 (Staph. aureus MRSA1 [1]),IC50 (C. tropicalis DBM 2166),morphological effect on bacterial cells (TEM) (Staph. aureus),% inhibition (HEK293T; c 50 µg/mL),% inhibition (HEK293T; c 100 µg/mL),% inhibition (HEK293T; c 200 µg/mL),% inhibition (HepG2; c 50 µg/mL),% inhibition (HepG2; c 100 µg/mL),further results
"C[C@H](CCC(=O)O)[C@H]1CC[C@H]2[C@@H]3CC[C@@H]4C[C@H](O)CC[C@]4(C)[C@H]3CC[C@]12C [LCA, lithocholic acid]",–,–,–,–,–,–,–,–,–,–,–,–,–,–,–,–,–,–,concentration range in which mutagenic factor (DNA): 200 to 400 µM
"CC(C)C[C@H](NC(=O)CC[C@@H](C)[C@H]1CC[C@H]2[C@@H]3CC[C@@H]4C[C@H](O)CC[C@]4(C)[C@H]3CC[C@]12C)C(=O)N[C@H](C(=O)N[C@@H](CCCCN)C(=O)N[C@@H](CCCNC(=N)N)C(=O)N[C@@H](C)C(=O)NCC(N)=O)C(C)C [SHP-1.3, LCA-LVKRAG-NH2] (Lithocholoyl-LVKRAG-NH2)",N / > 100.0 µg/mL,100.0 µg/mL,N / > 100.0 µg/mL,31.5 µg/mL,40.0 µg/mL,5.5 µg/mL,10.0 µg/mL,33.0 µg/mL,50.0 µg/mL,30.6 µg/mL,50.0 µg/mL,30.0 µg/mL,damaging cellular envelopes,63.8 ± 9.6%,72.0 ± 10.8%,84.1 ± 12.6%,57.4 ± 8.6%,92.8 ± 13.9%,"MIC (E. faecalis DBM 3075; DBM 3075, 24 h): 71.5 µg/mL; MIC (C. tropicalis DBM 2166; first value of cell 'MIC / IC50', 100% inhibition for 24 h): 10.3 µg/mL; bacteria killed within half an hour (Staph. aureus MRSA1 [2]; about 10^7 cells, SHP-1.2 only in medium with nutrients, SHP-1.3 in both media): 100%; killing activity (%) (Staph. aureus MRSA1 [2]; KP (potassium phosphate buffer, without nutrients)): 100 ± 18%; killing activity (%) (Staph. aureus MRSA1 [2]; MHB (Mueller–Hinton broth II, with nutrients)): 100 ± 12%; Membrane damage (%) (bacterial membrane; KP (potassium phosphate buffer)): 30 ± 5%; Membrane damage (%) (bacterial membrane; MHB (Mueller–Hinton broth II)): 0 ± 5%; % inhibition (HepG2; c 200 µg/mL): 97.8 ± 14.7%; efficiency on HepG2 cells (HepG2; concentration not given): 97%"
"CC(C)C[C@H](NC(=O)CC[C@@H](C)[C@H]1CC[C@H]2[C@@H]3CC[C@@H]4C[C@H](O)CC[C@]4(C)[C@H]3CC[C@]12C)C(=O)N[C@H](C(=O)N[C@@H](CCCCN)C(=O)NCC(=O)N[C@@H](C)C(=O)N[C@@H](CCCNC(=N)N)C(N)=O)C(C)C [SHP-2.3, LCA-LVKGAR-NH2] (Lithocholoyl-LVKGAR-NH2)",N / > 100.0 µg/mL,N / > 100.0 µg/mL,N / > 100.0 µg/mL,6.9 µg/mL,20.0 µg/mL,1.6 µg/mL,5.0 µg/mL,31.9 µg/mL,50.0 µg/mL,25.1 µg/mL,50.0 µg/mL,75.0 µg/mL,damaging cellular envelopes,25.6 ± 3.8%,42.2 ± 6.3%,85.1 ± 12.8%,7.4 ± 1.1%,0.0 ± 2.2%,"IC50 (A. baumannii DBM 3183): N / > 100.0 µg/mL; MIC (C. tropicalis DBM 2166; DBM 2166, 24 h): 56.4 µg/mL; weight ratio lipopeptide:DNA influencing electrophoretic mobility ([3]; circular plasmid): 10.0; weight ratio lipopeptide:DNA influencing electrophoretic mobility ([3]; linearized plasmid): 10.0"
